The results in this text go back to patent US9790189B2, “Disubstituted 5-fluoro pyrimidine derivatives containing a sulfondiimine group” (Bayer Pharma Aktiengesellschaft, priority 2014, dated 2017).

Values after ≈ are worked out from the molar mass of the structure shown. Like-named read-outs stand apart in the source and are kept apart here.

The test system of one data set is HeLa cells. The data set is described as follows: Proliferation assay, HeLa (crystal violet). The class given is cell-based. The note with it: Homo sapiens, 96 h, 4 days, read-out: Inhibition of HeLa cell proliferation IC50. On the procedure: (§1) Cultivated tumour cells (HeLa, human cervical tumour cells, ATCC CCL-2; NCI-H460, human non-small cell lung carcinoma cells, ATCC HTB-177; A2780, human ovarian carcinoma cells, ECACC #93112519; DU 145, hormone-independent human prostate carcinoma cells, ATCC HTB-81; HeLa-MaTu-ADR, multidrug-resistant human cervical carcinoma cells, EPO-GmbH Berlin; Caco-2, human colorectal carcinoma cells, ATCC HTB-37; B16F10, mouse melanoma cells, ATCC CRL-6475) were plated at a density of 5,000 cells/well (DU145, HeLa-MaTu-ADR), 3,000 cells/well (NCI-H460, HeLa), 2,500 cells/well (A2780), 1,500 cells/well (Caco-2), or 1,000 cells/well (B16F10) in a 96-well multititer plate in 200 μL of their respective growth medium supplemented 10% fetal calf serum. After 24 hours, the cells of one plate (zero-point plate) were stained with crystal violet (see below), while the medium of the other plates was replaced by fresh culture medium (200 μl), to which the test substances were added in various concentrations (0 μM, as well as in the range of 0.001-10 μM; the final concentration of the solvent dimethyl sulfoxide was 0.5%). The cells were incubated for 4 days in the presence of test substances. Cell proliferation was determined by staining the cells with crystal violet: the cells were fixed by adding 20 μl/measuring point of an 11% glutaric aldehyde solution for 15 minutes at room temperature. After three washing cycles of the fixed cells with water, the plates were dried at room temperature. The cells were stained by adding 100 μl/measuring point of a 0.1% crystal violet solution (pH 3.0). After three washing cycles of the stained cells with water, the plates were dried at room temperature. The dye was dissolved by adding 100 μl/measuring point of a 10% acetic acid solution. The extinction was determined by photometry at a wavelength of 595 nm. The change of cell number, in percent, was calculated by normalization of the measured values to the extinction values of the zero-point plate (=0%) and the extinction of the untreated (0 μm) cells (=100%).

The test system of a further data set is A2780 cells. Nature of the data set: Proliferation assay, A2780 (crystal violet). The format is cell-based. The note with it: Homo sapiens, 96 h; A2780, 4 days; read-out: Inhibition of A2780 cell proliferation IC50. The protocol: as §1
The next data set has as its system MOLM-13 cells. The data set is described as follows: Proliferation assay, MOLM-13 (Cell Titre-Glo). The format is cell-based. The note with it: Homo sapiens; MOLM-13, 72-hour exposure; read-out: Inhibition of MOLM-13 cell proliferation IC50. The protocol: Non-adherent MOLM-13 human acute myeloid leukemia cells (DSMZ ACC 554) were seeded at a density of 5,000 cells/well in a 96-well multititer plate in 100 μL of growth medium supplemented 10% fetal calf serum. After 24 hours, cell viability of one plate (zero-point plate) was determined with the Cell Titre-Glo Luminescent Cell Viability Assay (Promega), while 50 μL of test compound containing medium was added to the wells of the other plates (final concentrations in the range of 0.001-10 μM and DMSO controls; the final concentration of the solvent dimethyl sulfoxide was 0.5%). Cell viability was assessed after 72-hour exposure with the Cell Titre-Glo Luminescent Cell Viability Assay (Promega).

Data set [1] can be described thus: Equilibrium shake flask solubility, high throughput from DMSO solution (Method 4a). The class given is physicochemical. To be noted: phosphate buffer pH 6.5 with 1% DMSO, aqueous buffer, phosphate buffer pH 6.5, 24 hrs, room temperature. An excerpt: (§2) 4. Equilibrium Shake Flask Solubility Assays:
4a) High Throughput Determination of Aqueous Drug Solubility (100 mmolar in DMSO)
The high throughput screening method to determine aqueous drug solubility is based on:
Thomas Onofrey and Greg Kazan, Performance and correlation of a 96-well high throughput screening method to determine aqueous drug solubility, http://www.millipore.com/publications.nsf/a73664f9f981af8c852569b9005b4eee/e565516fb76e7435852 56da30052db77/$FILE/AN1731EN00.pdf
The assay was run in a 96-well plate format. Each well was filled with an individual compound.
All pipetting steps were performed using a robot platform.
100 μl of a 10 mmolar solution of drug in DMSO were concentrated by vacuum centrifugation and resolved in 10 μl DMSO. 990 μl phosphate buffer pH 6.5 were added. The content of DMSO amounts to 1%. The multititer plate was put on a shaker and mixed for 24 hrs at room temperature. 150 μl of the suspension were transferred to a filtration plate. After filtration using a vacuum manifold the filtrate was diluted 1:400 and 1:8000. A second microtiter plate with 20 μl of a 10 mM solution of drug in DMSO served for calibration. Two concentrations (0.005 μM and 0.0025 μM) were prepared by dilution in DMSO/water 1:1 and used for calibration. Filtrate and calibration plates were quantified by HPLC-MS/MS.
Preparation of 0.1 m Phosphate Buffer pH 6.5:
61.86 g NaCl and 39.54 mg KH2PO4 were solved in water and filled up to […]. The mixture was diluted 1:10 with water and the pH adjusted to 6.5 by NaOH.
Materials: • Millipore MultiScreenHTS-HV Plate 0.45 μm
Chromatographic conditions were as follows: • HPLC column: Ascentis Express C18 2.7 μm 4.6×30 mm • Injection volume: 1 μl • Flow: 1.5 ml/min • Mobile phase: acidic gradient • A: Water/0.05% HCOOH • B: Acetonitrile/0.05% HCOOH • 0 min→95% A 5% B • 0.75 min→5% A 95% B • 2.75 min→5% A 95% B • 2.76 min→95% A 5% B • 3 min→95% A 5% B
The areas of sample- and calibration injections were determined by using mass spectromety software (AB SCIEX: Discovery Quant 2.1.3. and Analyst 1.6.1). The calculation of the solubility value (in mg/l) was executed by an inhouse developed Excel macro.

A short description of data set [2]: Caco-2 permeation assay (Method 5). The format is in vitro ADME. The note with it: human; for Papp A→B at 2 h, 2 µM / Papp B→A at 2 h, 2 µM: pH 7.2, Caco-2, 2 μM test compound; for Papp A→B at 2 h, 2 µM: read-out: Papp A−B (Mari); for Papp B→A at 2 h, 2 µM: read-out: Papp B−A (Mari). A general note: Passage across Caco-2 layers is used to estimate intestinal permeability.
Method: Cells were maintained at 37° C. in a humidified 5% CO2 atmosphere. Medium was changed every 2-3 day. Before running the permeation assay, the culture medium was replaced by a FCS-free hepes-carbonate transport buffer (pH 7.2). For assessment of monolayer integrity the transepithelial electrical resistance (TEER) was measured. Test compounds were predissolved in DMSO and added either to the apical or basolateral compartment in final concentration of 2 μM in transport buffer. Before and after 2 h incubation at 37° C. samples were taken from both compartments. Analysis of compound content was done after precipitation with methanol by LC/MS/MS analysis. Permeability (Papp) was calculated in the apical to basolateral (A→B) and basolateral to apical (B→A) directions. […] The efflux ratio basolateral (B) to apical (A) was calculated by dividing the Papp B−A by the Papp A−B. In addition the compound recovery was calculated.

The target in data set [3] is T1, CDK2/CycE (Homo sapiens, UniProt P24941). Nature of the data set: CDK2/CycE kinase assay (TR-FRET, Method 2a). (In TR-FRET formats the signal depends on donor and acceptor labels being close together.)
Data set [4] deals with T2, CDK9/CycT1 (Homo sapiens, UniProt P50750). Nature of the data set: CDK9/CycT1 kinase assay (TR-FRET, Method 1a).
The target in data set [5] is T1, CDK2/CycE. Nature of the data set: CDK2/CycE high ATP kinase assay (TR-FRET, Method 2b).
In data set [6] the target is T2, CDK9/CycT1.
Another data set has as its system HeLa-MaTu-ADR cells. Nature of the data set: Proliferation assay, HeLa-MaTu-ADR (crystal violet). The format is cell-based. The note with it: Homo sapiens, 96 h, 4 days, read-out: Inhibition of HeLa-MaTu-ADR cell proliferation IC50. On the procedure:
as §1

The subject of a further data set is NCI-H460 cells. Nature of the data set: Proliferation assay, NCI-H460 (crystal violet). The class given is cell-based. The note with it: Homo sapiens, 96 h; NCI-H460, 4 days; read-out: Inhibition of NCI-H460 cell proliferation IC50. The protocol:
as §1

The test system of another data set is DU145 cells. Nature of the data set: Proliferation assay, DU145 (crystal violet). The format is cell-based. To be noted: Homo sapiens, DU-145, 96 h; DU145, 4 days; read-out: Inhibition of DU145 cell proliferation IC50. The protocol:
as §1

Another data set deals with Caco-2 cells. The data set is described as follows: Proliferation assay, Caco-2 (crystal violet). To be noted: Homo sapiens, 96 h; Caco-2, 4 days; read-out: Inhibition of Caco-2 cell proliferation IC50. The class given is cell-based. On the procedure:
as §1

A further data set deals with B16F10 cells. Nature of the data set: Proliferation assay, B16F10 (crystal violet). The format is cell-based. To be noted: Mus musculus, B16-F10, 96 h; B16F10, 4 days; read-out: Inhibition of B16F10 cell proliferation IC50. On the procedure: as §1
Data set [7] in a line: Thermodynamic solubility in water from powder (Method 4b). The format is physicochemical. The note with it: aqueous buffer, thermodynamic from solid, phosphate buffer pH 6.5, 24 hrs, room temperature. On the procedure:
as §2
4b) Thermodynamic Solubility in Water from Powder
The thermodynamic solubility of compounds in water was determined by an equilibrium shake flask method (see for example: E. H. Kerns, L. Di: Drug-like Properties: Concepts, Structure Design and Methods, 276-286, Burlington, Mass., Academic Press, 2008). A saturated solution of the drug was prepared and the solution was mixed for 24 h to ensure that equilibrium was reached. The solution was centrifuged to remove the insoluble fraction and the concentration of the compound in solution was determined using a standard calibration curve. To prepare the sample, 2 mg solid compound was weighed in a 4 mL glass vial. 1 mL phosphate buffer pH 6.5 was added. The suspension was stirred for 24 hrs at room temperature. The solution was centrifuged afterwards. To prepare the sample for the standard calibration, 2 mg solid sample was dissolved in 30 mL acetonitrile. After sonification the solution was diluted with water to 50 mL. Sample and standards were quantified by HPLC with UV-detection. For each sample two injection volumes (5 and 50 μl) in triplicates were made. Three injection volumes (5 μl, 10 μl and 20 μl) were made for the standard. […]
The areas of sample- and standard injections as well as the calculation of the solubility value (in mg/l) were determined by using HPLC software (Waters Empower 2 FR).

T2 sequence (P50750 whole entry): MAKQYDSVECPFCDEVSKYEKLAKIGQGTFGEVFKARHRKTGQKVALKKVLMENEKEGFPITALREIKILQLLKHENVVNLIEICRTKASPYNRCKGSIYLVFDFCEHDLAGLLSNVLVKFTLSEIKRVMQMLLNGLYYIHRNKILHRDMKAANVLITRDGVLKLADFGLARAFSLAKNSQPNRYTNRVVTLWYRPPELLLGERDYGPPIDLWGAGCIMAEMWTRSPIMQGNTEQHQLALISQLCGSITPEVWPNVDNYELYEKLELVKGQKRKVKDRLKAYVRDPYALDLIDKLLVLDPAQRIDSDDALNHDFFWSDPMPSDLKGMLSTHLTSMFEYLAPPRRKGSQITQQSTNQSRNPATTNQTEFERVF
T2 sequence (O60563 whole entry partner): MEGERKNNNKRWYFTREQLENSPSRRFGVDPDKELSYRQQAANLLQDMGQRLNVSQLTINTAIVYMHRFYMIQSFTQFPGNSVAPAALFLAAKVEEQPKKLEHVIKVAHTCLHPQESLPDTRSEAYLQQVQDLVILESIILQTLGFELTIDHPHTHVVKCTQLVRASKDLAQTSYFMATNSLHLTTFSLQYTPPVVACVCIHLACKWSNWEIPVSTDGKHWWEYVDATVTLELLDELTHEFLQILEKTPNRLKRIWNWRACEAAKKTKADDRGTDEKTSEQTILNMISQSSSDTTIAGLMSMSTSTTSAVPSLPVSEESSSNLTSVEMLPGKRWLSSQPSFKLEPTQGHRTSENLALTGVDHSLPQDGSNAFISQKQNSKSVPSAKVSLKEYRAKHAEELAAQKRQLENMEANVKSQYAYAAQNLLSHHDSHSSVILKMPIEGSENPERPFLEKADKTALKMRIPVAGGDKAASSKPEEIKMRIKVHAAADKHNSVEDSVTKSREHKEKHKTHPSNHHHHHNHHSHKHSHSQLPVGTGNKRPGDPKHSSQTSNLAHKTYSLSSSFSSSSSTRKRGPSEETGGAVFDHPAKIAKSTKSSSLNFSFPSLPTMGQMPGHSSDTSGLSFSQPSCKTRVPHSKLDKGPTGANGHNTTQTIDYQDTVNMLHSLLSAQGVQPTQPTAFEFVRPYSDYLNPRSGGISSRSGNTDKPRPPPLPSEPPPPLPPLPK

Usually thermodynamic solubility stands for solubility found after equilibrating the solid with the medium. What is called efflux ratio is a quotient of directional permeabilities that is used to spot active efflux. In general, Papp A→B refers to how fast a substance crosses the layer from the apical side. As a reminder, the Papp B→A is the apparent permeability from the basolateral to the apical side of a cell layer. Take `CS(=N)(=N)Cc1cc(Nc2ncc(F)c(-c3ccc(F)cc3F)n2)cc(S(F)(F)(F)(F)F)c1` [Example 7, 4-(2,4-Difluorophenyl)-5-fluoro-N-{3-[(S-methylsulfonodiimidoyl)methyl]-5-(pentafluoro-λ^6-sulfanyl)phenyl}pyrimidin-2-amine]: the IC50 was 346 nM with HeLa cells; 337 nM with A2780 cells; 244 nM with MOLM-13 cells; 2300 nM at CDK2/CycE [3]; 17 nM against CDK9/CycT1 [4]; not below 20000 nM against CDK2/CycE [5]. Also, the IC50 against CDK9/CycT1 [6] was 26 nM. Moreover, in data set [1], the thermodynamic solubility at 24 h amounted to 1.2 µg/mL (≈ 2.32 µM). Further, in data set [2] (Caco-2, pH 7.2), the efflux ratio at 2 h, 2 µM turned out to be 1.1. Further, the Papp A→B at 2 h, 2 µM in data set [2] was 3.21 ×10⁻⁶ cm/s. Besides, the Papp B→A at 2 h, 2 µM in [2] was 3.57 ×10⁻⁶ cm/s. Besides, the “Selectivity CDK9 over CDK2: IC50 (CDK2)/IC50 (CDK9)” value on CDK9/CycT1 [4] (Methods 1a and 2a) was found to be 135. Also, at CDK9/CycT1 [6] (Methods 1b and 2b), the “Selectivity high ATP CDK9 over high ATP CDK2: IC50 (high ATP CDK2)/IC50 (high ATP CDK9)” value is on record as 769.

Consider `COc1cc(F)ccc1-c1nc(Nc2cc(F)cc(CS(C)(=N)=N)c2)ncc1F` [Example 1, 5-Fluoro-4-(4-fluoro-2-methoxyphenyl)-N-{3-fluoro-5-[(S-methylsulfonodiimidoyl)methyl]phenyl}pyrimidin-2-amine], for which the IC50 was 252 nM in the data set with HeLa cells; 327 nM in the data set with HeLa-MaTu-ADR cells; 351 nM with NCI-H460 cells; 341 nM with DU145 cells; 386 nM in the data set with Caco-2 cells; 532 nM in the data set with B16F10 cells. Moreover, the IC50 in the data set with A2780 cells was 201 nM. For the same compound, the solubility (thermodynamic) at 24 h in data set [1] turned out to be 155 µg/mL (≈ 368 µM); in data set [7], 91 µg/mL (≈ 216 µM). Further, the Papp A→B at 2 h, 2 µM in data set [2] was 5 ×10⁻⁶ cm/s. Also, the Papp B→A at 2 h, 2 µM in [2] was found to be 28 ×10⁻⁶ cm/s.

As for `COc1cc(F)ccc1-c1nc(Nc2cc(CS(C)(=N)=N)cc(S(F)(F)(F)(F)F)c2)ncc1F` [Example 8, 5-Fluoro-4-(4-fluoro-2-methoxyphenyl)-N-{3-[(S-methylsulfonodiimidoyl)methyl]-5-(pentafluoro-λ^6-sulfanyl)phenyl}pyrimidin-2-amine], the IC50 amounted to 104 nM in the data set on HeLa cells; 194 nM with HeLa-MaTu-ADR cells; 149 nM with NCI-H460 cells; 130 nM in the data set on DU145 cells; 144 nM in the data set on Caco-2 cells; 237 nM with B16F10 cells. Besides, the IC50 in the data set on MOLM-13 cells came to 36 nM; on CDK2/CycE [3], 400 nM; against CDK2/CycE [5], 2990 nM. The compound also came in with a solubility (thermodynamic) at 24 h in data set [1] of 2.2 µg/mL (≈ 4.15 µM). Also, the Papp A→B at 2 h, 2 µM in [2] turned out to be 3.33 ×10⁻⁶ cm/s. Also, the Papp B→A at 2 h, 2 µM in data set [2] was determined as 5.19 ×10⁻⁶ cm/s.
